Results published in patent US8729082B2, “Substituted imidazoquinoxalines” (Bayer Intellectual Property GmbH, priority 2009, dated 2014).

target: T1, human kinase Mps-1 (Homo sapiens, UniProt P33981); test: Mps-1 kinase assay (HTRF); format: biochemical; details: lowATP; mean; read-out: Mps1 lowATP mean IC50
T1 construct: N-terminally GST-tagged human full length recombinant Mps-1 kinase; purchased Invitrogen, Karslruhe, Germany PV4071
T1 sequence (P33981 1-857): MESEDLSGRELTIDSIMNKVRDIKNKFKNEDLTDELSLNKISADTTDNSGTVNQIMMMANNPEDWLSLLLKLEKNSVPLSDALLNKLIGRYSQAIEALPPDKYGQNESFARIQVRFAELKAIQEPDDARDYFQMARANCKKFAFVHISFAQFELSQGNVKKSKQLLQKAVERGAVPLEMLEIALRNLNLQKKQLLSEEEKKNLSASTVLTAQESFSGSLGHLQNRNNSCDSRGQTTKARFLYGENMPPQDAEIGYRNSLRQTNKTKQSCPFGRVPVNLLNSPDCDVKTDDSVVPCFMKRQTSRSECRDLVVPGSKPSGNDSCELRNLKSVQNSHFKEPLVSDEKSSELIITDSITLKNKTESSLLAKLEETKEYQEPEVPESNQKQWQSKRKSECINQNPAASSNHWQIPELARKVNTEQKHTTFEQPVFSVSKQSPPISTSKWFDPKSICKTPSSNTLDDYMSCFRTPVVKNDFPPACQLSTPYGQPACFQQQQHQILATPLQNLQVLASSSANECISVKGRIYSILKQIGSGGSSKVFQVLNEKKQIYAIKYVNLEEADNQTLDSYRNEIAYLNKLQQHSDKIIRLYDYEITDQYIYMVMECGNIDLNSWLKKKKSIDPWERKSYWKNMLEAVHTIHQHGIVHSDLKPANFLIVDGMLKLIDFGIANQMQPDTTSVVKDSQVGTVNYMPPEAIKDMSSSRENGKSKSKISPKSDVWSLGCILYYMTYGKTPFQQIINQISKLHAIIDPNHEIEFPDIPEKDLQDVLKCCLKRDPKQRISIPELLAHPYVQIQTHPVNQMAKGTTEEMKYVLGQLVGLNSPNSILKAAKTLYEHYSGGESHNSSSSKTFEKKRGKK
Procedure: The human kinase Mps-1 phosphorylates a biotinylated substrate peptide. Detection of the phosphorylated product is achieved by homogenous time-resolved fluorescence resonance energy transfer (HTRF) from Europium-labelled anti-phospho-Serine/Threonine antibody as donor to streptavidin labelled with cross-linked allophycocyanin (SA-XLent) as acceptor. Compounds are tested for their inhibition of the kinase activity.
N-terminally GST-tagged human full length recombinant Mps-1 kinase (purchased from Invitrogen, Karslruhe, Germany, cat. no PV4071) was used. As substrate for the kinase reaction a biotinylated peptide of the amino-acid sequence PWDPDDADITEILG (C-terminus in amide form, purchased from Biosynthan GmbH, Berlin) was used.
For the assay 50 nl of a 100-fold concentrated solution of the test compound in DMSO was pipetted into a black low volume 384 well microtiter plate (Greiner Bio-One, Frickenhausen, Germany), 2 μl of a solution of Mps-1 in assay buffer [0.1 mM sodium-ortho-vanadate, 10 mM MgCl2, 2 mM DTT, 25 mM Hepes pH 7.7, 0.05% BSA, 0.001% Pluronic F-127] were added and the mixture was incubated for 15 min at 22° C. to allow pre-binding of the test compounds to Mps-1 before the start of the kinase reaction. Then the kinase reaction was started by the addition of 3 μl of a solution of 16.7 μM ATP and 1.67 μM peptide in assay buffer and the resulting mixture was incubated for a reaction time of 60 min at 22° C. The concentration of Mps-1 in the assay was adjusted to the activity of the enzyme lot and was chosen appropriate to have the assay in the linear range, typical enzyme concentrations were in the range of about 1 nM (final conc. in the 5 μl assay volume). The reaction was stopped by the addition of 3 μl of a solution of HTRF detection reagents (100 mM Hepes pH 7.4, 0.1% BSA, 40 mM EDTA, 140 nM Streptavidin-XLent [#61GSTXLB, Fa. Cis Biointernational, Marcoule, France], 1.5 nM anti-phospho(Ser/Thr)-Europium-antibody [#AD0180, PerkinElmer LAS, Rodgau-Jügesheim, Germany].
The resulting mixture was incubated 1 h at 22° C. to allow the binding of the phosphorylated peptide to the anti-phospho(Ser/Thr)-Europium-antibody. Subsequently the amount of phosphorylated substrate was evaluated by measurement of the resonance energy transfer from the Europium-labelled anti-phospho(Ser/Thr) antibody to the Streptavidin-XLent. Therefore, the fluorescence emissions at 620 nm and 665 nm after excitation at 350 nm was measured in a HTRF reader, e.g. a Rubystar (BMG Labtechnologies, Offenburg, Germany) or a Viewlux (PerkinElmer LAS, Rodgau-Jügesheim, Germany). The ratio of the emissions at 665 nm and at […] was taken as the measure for the amount of phosphorylated substrate. The data were normalised (enzyme reaction without inhibitor=0% inhibition, all other assay components but no enzyme=100% inhibition).

Structure (SMILES) | IC50
CNC(=O)c1ccc(-c2cnc3c(NCC(C)C)nc4ccccc4n23)cc1Cl [Example 1-46, 2-chloro-N-methyl-4-{4-[(2-methylpropyl)amino]imidazo[1,2-a]quinoxalin-1-yl}benzamide] | 2420 nM
CC(C)CNc1nc2ccccc2n2c(-c3ccc(C(=O)NC4CC4)c(Cl)c3)cnc12 [Example 1-47, 2-chloro-N-cyclopropyl-4-{4-[(2-methylpropyl)amino]imidazo[1,2-a]quinoxalin-1-yl}benzamide] | 367 nM
CC(C)CNc1nc2ccccc2n2c(-c3ccc4[nH]ncc4c3)cnc12 [Example 1-48, 1-(1H-indazol-5-yl)-N-(2-methylpropyl)imidazo[1,2-a]quinoxalin-4-amine] | 4530 nM
CC(C)CNc1nc2ccccc2n2c(-c3ccc4cn[nH]c4c3)cnc12 [Example 1-49, 1-(1H-indazol-6-yl)-N-(2-methylpropyl)imidazo[1,2-a]quinoxalin-4-amine] | 6460 nM
CNC(=O)c1ccc(-c2cnc3c(NCC(C)C)nc4ccccc4n23)cn1 [Example 1-50, N-methyl-5-{4-[(2-methylpropyl)amino]imidazo[1,2-a]quinoxalin-1-yl}pyridine-2-carboxamide] | 416 nM
O=C(NC1CC1)c1ccc(-c2cnc3c(NCCO)nc4ccccc4n23)cc1 [Example 2-1, N-cyclopropyl-4-[4-(2-hydroxy-ethylamino)-imidazo[1,2-a]quinoxalin-1-yl]-benzamide] | 113 nM
O=C(NC1CC1)c1ccc(-c2cnc3c(NCCCN4CCOCC4)nc4ccccc4n23)cc1 [Example 2-2, N-cyclopropyl-4-(4-{[3-(morpholin-4-yl)propyl]amino}imidazo[1,2-a]quinoxalin-1-yl)benzamide] | 396 nM
CC(C)CCNc1nc2ccccc2n2c(-c3ccc(C(=O)NC4CC4)cc3)cnc12 [Example 2-3, N-cyclopropyl-4-{4-[(3-methylbutyl)amino]imidazo[1,2-a]quinoxalin-1-yl}benzamide] | 34 nM
Cc1cccc(CNc2nc3ccccc3n3c(-c4ccc(C(=O)NC5CC5)cc4)cnc23)c1 [Example 2-4, N-cyclopropyl-4-{4-[(3-methylbenzyl)amino]imidazo[1,2-a]quinoxalin-1-yl}benzamide] | 132 nM
O=C(NC1CC1)c1ccc(-c2cnc3c(NCc4cccc(F)c4)nc4ccccc4n23)cc1 [Example 2-5, N-cyclopropyl-4-{4-[(3-fluorobenzyl)amino]imidazo[1,2-a]quinoxalin-1-yl}benzamide] | 90 nM

More lines, now with the values ahead:

IC50 | Structure (SMILES)
232 nM | Cc1ccccc1CNc1nc2ccccc2n2c(-c3ccc(C(=O)NC4CC4)cc3)cnc12 [Example 2-6, N-cyclopropyl-4-{4-[(2-methylbenzyl)amino]imidazo[1,2-a]quinoxalin-1-yl}benzamide]
222 nM | O=C(NC1CC1)c1ccc(-c2cnc3c(NCc4cccc(Cl)c4)nc4ccccc4n23)cc1 [Example 2-7, 4-{4-[(3-chlorobenzyl)amino]imidazo[1,2-a]quinoxalin-1-yl}-N-cyclopropylbenzamide]
169 nM | O=C(NC1CC1)c1ccc(-c2cnc3c(NCCc4ccccc4)nc4ccccc4n23)cc1 [Example 2-8, N-cyclopropyl-4-{4-[(2-phenylethyl)amino]imidazo[1,2-a]quinoxalin-1-yl}benzamide]
545 nM | O=C(NC1CC1)c1ccc(-c2cnc3c(Nc4ccccc4)nc4ccccc4n23)cc1 [Example 2-9, N-cyclopropyl-4-[4-(phenylamino)imidazo[1,2-a]quinoxalin-1-yl]benzamide]
92.4 nM | CCCCCNc1nc2ccccc2n2c(-c3ccc(C(=O)NC4CC4)cc3)cnc12 [Example 2-10, N-cyclopropyl-4-[4-(pentylamino)imidazo[1,2-a]quinoxalin-1-yl]benzamide]
296 nM | O=C(NC1CC1)c1ccc(-c2cnc3c(NCCCN4CCCC4=O)nc4ccccc4n23)cc1 [Example 2-11, N-cyclopropyl-4-(4-{[3-(2-oxopyrrolidin-1-yl)propyl]amino}imidazo[1,2-a]quinoxalin-1-yl)benzamide]
